Data reported in the NIST ThermoML archive (doi:10.1016/j.jct.2005.10.009).

How the values were obtained:
[1] = molar heat capacity at constant pressure; conditions: 101 kPa, Liquid, Small sample (50 mg) DSC
[2] = 101.33 kPa, Liquid; for speed of sound: Pulse-echo method; for mass density: Pycnometric method

CCCCCCCCCCO [decan-1-ol]
Conditions | mass density [kg/m3] | molar heat capacity at constant pressure [J/K/mol] | speed of sound [m/s]
[1], 290.91 K | – | 364.49 | –
[1], 291.15 K | – | 364.8 | –
[1], 292.15 K | – | 366.05 | –
[1], 293.15 K | – | 367.19 | –
[1], 294.15 K | – | 368.25 | –
[1], 295.15 K | – | 369.35 | –
[1], 296.15 K | – | 370.35 | –
[1], 297.15 K | – | 371.6 | –
[1], 298.15 K | – | 372.77 | –
[1], 299.15 K | – | 373.71 | –
[1], 300.15 K | – | 374.91 | –
[1], 301.15 K | – | 375.89 | –
[1], 302.15 K | – | 377.05 | –
[1], 303.15 K | – | 378.2 | –
[1], 304.15 K | – | 379.47 | –
[1], 305.15 K | – | 380.58 | –
[1], 306.15 K | – | 381.75 | –
[1], 307.15 K | – | 382.43 | –
[1], 308.15 K | – | 384.6 | –
[1], 309.15 K | – | 385.42 | –
[1], 310.15 K | – | 386.61 | –
[1], 311.15 K | – | 387.89 | –
[1], 312.15 K | – | 389.03 | –
[1], 313.15 K | – | 390.28 | –
[1], 314.15 K | – | 391.58 | –
[1], 315.15 K | – | 392.8 | –
[1], 316.15 K | – | 394.11 | –
[1], 317.15 K | – | 395.3 | –
[1], 318.15 K | – | 396.66 | –
[1], 318.39 K | – | 396.93 | –
[2], 293.1 K | – | – | 1397.2
[2], 293.15 K | 829.77 | – | –
[2], 298.07 K | – | – | 1380
[2], 298.15 K | 826.38 | – | –
[2], 303.04 K | – | – | 1362.8
[2], 303.15 K | 822.98 | – | –
[2], 308.04 K | – | – | 1345.8
[2], 308.15 K | 819.62 | – | –
[2], 313.01 K | – | – | 1329
[2], 313.15 K | 816.15 | – | –
[2], 318.15 K | 812.67 | – | –
[2], 318.18 K | – | – | 1311.7

CCCCCCC [heptane]
[2]
Conditions | mass density [kg/m3] | speed of sound [m/s]
293.13 K | – | 1151.9
293.15 K | 683.81 | –
298.12 K | – | 1130.3
298.15 K | 679.6 | –
303.1 K | – | 1108.8
303.15 K | 675.38 | –
308.07 K | – | 1087.5
308.15 K | 671.05 | –
313.03 K | – | 1066.3
313.15 K | 666.78 | –
318.15 K | 662.42 | –
318.33 K | – | 1043.9
